{
  "source": "patent US20240344145A1",
  "about": "“PHARMACOGENOMICS SCORE TO MAKE DECISIONS ON THERAPY AUGMENTATION IN AML” (University of Florida Research Foundation, Incorporated, priority 2021, published 2024)",
  "tested_on": "pediatric AML patients",
  "assay": "AML02 multicenter clinical trial, LDAC vs HDAC induction arms: MRD1, EFS and OS overall and by ACS10 score",
  "type": "in vivo, human",
  "set-up": "3-year EFS / 4-year OS / 5-year OS / 4-year EFS / 5-year EFS / 3-year OS: unit not given here",
  "settings": "for Event-free Survival 5 years / Overall Survival 5 years: AML02 cohort",
  "experimental": "One hundred and sixty-six pediatric AML patients treated under the multicenter AML02 clinical trial protocol were included in the study. Details of study design and clinical outcome have been described elsewhere. Briefly, patients with de novo AML were randomized to receive either high (3 g/m^2, given every 12 h on days 1, 3, and 5; this condition is designated “HDAC”) or low dose (100 mg/m^2 given every 12 h on days 1-10; this condition is designated “LDAC”) cytarabine along with daunorubicin (50 mg/m^2 on days 2, 4 and 6) and etoposide (100 mg/m^2 on days 2-6) as a first course of chemotherapy with subsequent treatment tailored to response and risk classification. For initial risk assignment, patients with cytogenetic translocations comprisingt [8;21] (e.g., translocation between chromosome 8 and 21), inv (16), ort [9;11] were classified as low-risk. Patients with features such as deletion of chromosome 7 (−7), presence of FLT3-ITD mutation (FLT-ITD), cytogenetic translocation comprisingt [6;9], megakaryoblastic leukemia (AMKL), treatment-related AML, or AML arising from MDS were classified as high-risk AML. Patients lacking any of the low or high-risk group features were provisionally classified as standard risk AML. Patient risk classifications were updated on the basis of minimal residual disease evaluations. Clinical endpoints used in this evaluation were defined as follows: i) Minimal residual disease after induction 1 (“MRD1”) (patients were defined as MRD positive if they had ≥1 leukemic cell per 1000 mononuclear bone marrow cells (≥0.1%); ii) Complete remission defined as trilineage hematopoietic recovery with less than 5% blasts in the marrow; iii) Event-free survival (“EFS”) defined as the time from study enrollment to induction failure, relapse, secondary malignancy, death, or study withdrawal for any reason, with event-free patients censored on the date of last follow-up; and iv) Overall survival (“OS”) defined as the time from study enrollment to death, with living patients censored on the date of last follow-up. St. Jude Institutional Review Board approved the study, and informed consent was obtained from parents/guardians and consents/assents from the individuals.\nThe association of MRD1, EFS, and OS was evaluated with ACS10 scores in the AML02 discovery cohort and the AAML0531 validation cohort. The Kaplan-Meier method was used to estimate the EFS and OS probabilities for well-defined groups of patients. Cox regression models were used to associate ACS10 with EFS and OS and used logistic regression models to associate ACS10 with MRD1. The Wilcoxon rank-sum test and Kruskal-Wallis test were used to compare medians of numeric variables across groups. Chi-square tests and Fisher's exact test were used to evaluate the association among pairs of categorical variables. All p-values are two-sided. All statistical analyses were performed using R software (www.r-project.org).\nThe multicenter AML02 clinical trial randomly assigned subjects to receive low dose ara-C (LDAC: 100 mg/m^2; n=91 patients) or high dose ara-C(HDAC: 3 g/m^2; n=75 patients) in combination with daunorubicin and etoposide as the first course of chemotherapy as described above in patient cohort section. Thus, the association of SNPs with outcome within each arm separately was also explored (Table 5).\nGiven patients in AML02 cohort were randomized to receive low or augmented high dose of ara-C, this unique opportunity was leveraged to evaluate performance of ACS10 score within the different ara-C dose treatment arms (of note LDAC and HDAC arms had similar distribution of patients across, disease characteristics, risk group, cytogenetics, race, gender etc. Table 3). […]",
  "key": {"[1]": {"settings": "ACS10 score 0, risk-adjusted Cox model"}, "[2]": {"settings": "ACS10 score 1, risk-adjusted Cox model"}, "[3]": {"settings": "ACS10 score 2, risk-adjusted Cox model"}, "[4]": {"settings": "ACS10 score 3, risk-adjusted Cox model"}, "[5]": {"settings": "ACS10 score 4, risk-adjusted Cox model"}, "[6]": {"settings": "ACS10 score 5, risk-adjusted Cox model"}, "[7]": {"settings": "ACS10 score −1, risk-adjusted Cox model"}, "[8]": {"settings": "ACS10 score −2, risk-adjusted Cox model"}, "[9]": {"settings": "ACS10 score −3, risk-adjusted Cox model"}, "[10]": {"settings": "ACS10 score −5, risk-adjusted Cox model"}, "[11]": {"settings": "low ACS10 score (≤0) patients, AML02"}, "[12]": {"settings": "number of patients per arm, after induction 1, AML02 cohort"}, "[13]": {"settings": "patients with ACS10 score of +5, risk-adjusted Cox model"}, "[14]": {"settings": "patients with ACS10 score of −5, risk-adjusted Cox model"}},
  "data": [
    {"smiles": "Nc1ccn([C@@H]2O[C@H](CO)[C@@H](O)[C@@H]2O)c(=O)n1", "note": "[HDAC, cytarabine]", "values": [
      {"measurement": "3-year EFS", "setting": "[1]", "value": 0.6070},
      {"measurement": "3-year OS", "setting": "[1]", "value": 0.6946},
      {"measurement": "4-year EFS", "setting": "[1]", "value": 0.5942},
      {"measurement": "4-year OS", "setting": "[1]", "value": 0.6875},
      {"measurement": "5-year EFS", "setting": "[1]", "value": 0.5872},
      {"measurement": "5-year OS", "setting": "[1]", "value": 0.6875},
      {"measurement": "3-year EFS", "setting": "[2]", "value": 0.6247},
      {"measurement": "3-year OS", "setting": "[2]", "value": 0.7260},
      {"measurement": "4-year EFS", "setting": "[2]", "value": 0.6122},
      {"measurement": "4-year OS", "setting": "[2]", "value": 0.7194},
      {"measurement": "5-year EFS", "setting": "[2]", "value": 0.6053},
      {"measurement": "5-year OS", "setting": "[2]", "value": 0.7194},
      {"measurement": "3-year EFS", "setting": "[3]", "value": 0.6418},
      {"measurement": "3-year OS", "setting": "[3]", "value": 0.7550},
      {"measurement": "4-year EFS", "setting": "[3]", "value": 0.6297},
      {"measurement": "4-year OS", "setting": "[3]", "value": 0.7489},
      {"measurement": "5-year EFS", "setting": "[3]", "value": 0.6231},
      {"measurement": "5-year OS", "setting": "[3]", "value": 0.7489},
      {"measurement": "3-year EFS", "setting": "[4]", "value": 0.6585},
      {"measurement": "3-year OS", "setting": "[4]", "value": 0.7816},
      {"measurement": "4-year EFS", "setting": "[4]", "value": 0.6468},
      {"measurement": "4-year OS", "setting": "[4]", "value": 0.7760},
      {"measurement": "5-year EFS", "setting": "[4]", "value": 0.6403},
      {"measurement": "5-year OS", "setting": "[4]", "value": 0.7760},
      {"measurement": "3-year EFS", "setting": "[5]", "value": 0.6747},
      {"measurement": "3-year OS", "setting": "[5]", "value": 0.8058},
      {"measurement": "4-year EFS", "setting": "[5]", "value": 0.6633},
      {"measurement": "4-year OS", "setting": "[5]", "value": 0.8007},
      {"measurement": "5-year EFS", "setting": "[5]", "value": 0.6570},
      {"measurement": "5-year OS", "setting": "[5]", "value": 0.8007},
      {"measurement": "3-year EFS", "setting": "[6]", "value": 0.6903},
      {"measurement": "3-year OS", "setting": "[6]", "value": 0.8278},
      {"measurement": "4-year EFS", "setting": "[6]", "value": 0.6793},
      {"measurement": "4-year OS", "setting": "[6]", "value": 0.8232},
      {"measurement": "5-year EFS", "setting": "[6]", "value": 0.6732},
      {"measurement": "5-year OS", "setting": "[6]", "value": 0.8232},
      {"measurement": "3-year EFS", "setting": "[7]", "value": 0.5889},
      {"measurement": "3-year OS", "setting": "[7]", "value": 0.6609},
      {"measurement": "4-year EFS", "setting": "[7]", "value": 0.5758},
      {"measurement": "4-year OS", "setting": "[7]", "value": 0.6533},
      {"measurement": "5-year EFS", "setting": "[7]", "value": 0.5686},
      {"measurement": "5-year OS", "setting": "[7]", "value": 0.6533},
      {"measurement": "3-year EFS", "setting": "[8]", "value": 0.5703},
      {"measurement": "3-year OS", "setting": "[8]", "value": 0.6251},
      {"measurement": "4-year EFS", "setting": "[8]", "value": 0.5569},
      {"measurement": "4-year OS", "setting": "[8]", "value": 0.6170},
      {"measurement": "5-year EFS", "setting": "[8]", "value": 0.5496},
      {"measurement": "5-year OS", "setting": "[8]", "value": 0.6170},
      {"measurement": "3-year EFS", "setting": "[9]", "value": 0.5513},
      {"measurement": "3-year OS", "setting": "[9]", "value": 0.5873},
      {"measurement": "4-year EFS", "setting": "[9]", "value": 0.5377},
      {"measurement": "4-year OS", "setting": "[9]", "value": 0.5788},
      {"measurement": "5-year EFS", "setting": "[9]", "value": 0.5302},
      {"measurement": "5-year OS", "setting": "[9]", "value": 0.5788},
      {"measurement": "3-year EFS", "setting": "[10]", "value": 0.5123},
      {"measurement": "3-year OS", "setting": "[10]", "value": 0.5073},
      {"measurement": "4-year EFS", "setting": "[10]", "value": 0.4983},
      {"measurement": "4-year OS", "setting": "[10]", "value": 0.4983},
      {"measurement": "5-year EFS", "setting": "[10]", "value": 0.4906},
      {"measurement": "5-year OS", "setting": "[10]", "value": 0.4983},
      {"measurement": "Event-free Survival 5 years", "setting": "High ACS10 score group", "value": "0.631 ± 0.074"},
      {"measurement": "Overall Survival 5 years", "setting": "High ACS10 score group", "value": "0.743 ± 0.067"},
      {"measurement": "Event-free Survival 5 years", "setting": "Low ACS10 score group", "value": "0.548 ± 0.089"},
      {"measurement": "Overall Survival 5 years", "setting": "Low ACS10 score group", "value": "0.634 ± 0.088"},
      {"measurement": "5 year EFS", "setting": "[11]", "value": 55, "unit": "%"},
      {"measurement": "five-year OS", "setting": "[11]", "value": 63, "unit": "%"},
      {"measurement": "MRDIND1 Negative (<0.1%)", "setting": "[12]", "value": "43^+"},
      {"measurement": "MRDIND1 Positive (>=0.1%)", "setting": "[12]", "value": "28^+"},
      {"measurement": "3-year EFS, model estimate", "setting": "[13]", "value": 69.0, "unit": "%"},
      {"measurement": "3-year OS, model estimate", "setting": "[13]", "value": 82.8, "unit": "%"},
      {"measurement": "3-year EFS, model estimate", "setting": "[14]", "value": 51.2, "unit": "%"},
      {"measurement": "3-year OS, model estimate", "setting": "[14]", "value": 50.7, "unit": "%"},
      {"measurement": "Event-free Survival 5 years", "setting": "probability, whole arm", "value": "0.597 ± 0.0569"},
      {"measurement": "Overall Survival 5 years", "setting": "probability, whole arm", "value": "0.699 ± 0.0537"},
      {"measurement": "EFS HR, low-ACS10 vs high-ACS10 score", "setting": "within arm, AML02", "value": 1.28},
      {"measurement": "OS HR, low-ACS10 vs high-ACS10 score", "setting": "within arm, AML02", "value": 1.56},
      {"measurement": "EFS HR for each one-point increase in ACS10", "setting": "within arm, risk-adjusted Cox model, AML02", "value": 0.92}
    ]}
  ]
}
